Laboratory results published in patent US20240361338A1, “DIAGNOSIS AND TREATMENT OF ECTOPIC ENDOMETRIOSIS” (FERRING B.V., priority 2021, published 2024).

Assays:
ectopic E-MSCs [1] = experiment: Endothelial differentiation (CD31) of ectopic E-MSCs in co-culture with HUVECs; assay type: cell-based, human; details: for endothelial differentiation (CD31 expression) of E-MSCs: 1 μM, 24 h treatment, 48 h co-culture with HUVECs
Description: FIG. 5: Quinagolide effect on EMSCs endothelial differentiation. A. FACS gating-strategy for the analysis of CD31^+ EMSCs after direct 48 h co-culture with HUVECs. EMSCs are gated as GFP negative population, and CD31 expression is evaluated on the described gated EMSCs after 48 h co-culture with HUVECs as percentage of CD31 APC positive events. B, C and D: Representative flow cytometry micrographs and quantification, expressed as percentage of variation respect to control co-culture, of the effect of 24 h treatment of EMSCs with 25 μM cabergoline, 1 μM sorafenib, 1 μM cabozantinib (B), 100 nM quinagolide (C) and the combination of 5 μM spiperone and 100 nM quinagolide (D) on EMSCs CD31 expression after 48 h of co-culture with HUVECs. Data are represented as mean±SD of at least three independent experiments, performed on different ectopic EMSC lines, and normalized to untreated co-culture. One-way ANova was performed: *=p<0.05 and ***=p<0.001 vs control.
(BSA)-Phosphate Buffered Saline (PBS) (Sigma). For each staining, 100,000 cells were incubated for 20 minutes at 4° C. with FITC, APC or PE-conjugated antibodies against: CD29, CD44, CD73, CD90 (BD Bioscences, Franklin Lakes, NJ, USA); CD31, CD34, CD105, CD140b, CD146, TEK receptor tyrosine kinase (Tie2), Sushi domain-containing protein 2 (SUSD2) (Miltenyi Biotech, Bergisch Gladbach, Germany); CD45 (AbD Serotec, Raleigh, NC, USA), or epithelial cell adhesion molecule (EPCAM) (BioLegend, San Diego, CA, USA). Labelled cells were washed by centrifugation and final pellet was resuspended in 200 μl of 0.1% BSA-PBS before cytofluorimetric analysis. Isotype (Miltenyi Biotec) was used as negative control.
Quinagolide powder (provided by Ferring Pharmaceuticals) was stored at 4° C. and resuspended in dimethylsulphoxide (DMSO) to a stock solution of 1 mM immediately before use. Spiperone powder (Sigma-Aldrich) was resuspended in water to a stock concentration of 1 mM and stored at −20° C. Cabergoline powder (Sigma-Aldrich) was dissolved in DMSO to a stock concentration of 25 mM and stored at −20° C. Sorafenib and cabozantinib (Sigma-Aldrich) were resuspended in DMSO to a final concentration of 10 mM and according to the manufacturer's instructions, and stored at −20° C. and −80° C., respectively. Quinagolide, spiperone and cabergoline were diluted 1:100 (final concentration 100 nM), 1:1000 (final concentration 5 μM) and 1:1000 (final concentration 25 μM) respectively. Quinagolide, cabergoline, sorafenib and cabozantinib and were administered for 24 hours during co-culture experiments, while spiperone was added to culture medium 1 h before quinagolide treatment. For invasion assays, E-MSCs were treated with spiperone 1 h before the cell detachment and quinagolide was added only when cells were plated on Matrigel. […]

ectopic E-MSCs [2] = details: 25 μM, previously described (Canosa et al., 2017), positive control; cited from earlier work
ectopic E-MSCs [3] = experiment: Matrigel transwell invasion assay, ectopic E-MSCs; assay type: cell-based, human; details: 5 μM spiperone pre-treatment 1 h, then 100 nM quinagolide, ectopic EMSCs
Description: FIG. 4: Quinagolide effect on EMSCs invasion. A and B: Representative micrographs (A) and quantification (B) of quinagolide effect (100 nM) on eutopic and ectopic (both ovarian and peritoneal) EMSCs invasion (original magnification: ×100). C: Concentration response effect of quinagolide treated ectopic EMSCs invasion. D and E: Quantification (D) and representative micrographs (E) (original magnification: ×100) of invasion assays performed on ectopic EMSCs (both ovarian and peritoneal), treated with 100 nM quinagolide (Q100 nM), 5 μM spiperone(S) or a combination of quinagolide and spiperone (S+Q100 nM). All invasion data are represented as mean±SD of at least three independent experiments, performed on different EMSC lines, and normalized to untreated cells (CTL). One-way ANova was performed: *=p<0.05 and **=p<0.001 vs CTL. Quinagolide powder (provided by Ferring Pharmaceuticals) was stored at 4° C. and resuspended in dimethylsulphoxide (DMSO) to a stock solution of 1 mM immediately before use. Spiperone powder (Sigma-Aldrich) was resuspended in water to a stock concentration of 1 mM and stored at −20° C. Cabergoline powder (Sigma-Aldrich) was dissolved in DMSO to a stock concentration of 25 mM and stored at −20° C. […] Quinagolide, cabergoline, sorafenib and cabozantinib and were administered for 24 hours during co-culture experiments, while spiperone was added to culture medium 1 h before quinagolide treatment. […] E-MSCs were seeded in triplicate in Matrigel-precoated (100 μg Matrigel/transwell) 8-um pore transwells at a concentration of 50,000 cells per well in 200 μl of RPMI 2% FCS with/without quinagolide at the indicated concentration. To test the D2 antagonist effect, E-MSCs were pre-treated with spiperone (5 μM) for 1 h at 37° C. before cell detachment. After 48 hours, invaded E-MSCs on the bottom side of the transwell were fixed with methanol and stained with crystal violet. At least five pictures per transwell were acquired (original magnification: 100×), and the percentage of transwell area covered by invaded EMSCs was quantitatively measured by ImageJ software.

With CNC(=O)c1cc(Oc2ccc(NC(=O)Nc3ccc(Cl)c(C(F)(F)F)c3)cc2)ccn1 [Sorafenib] the “endothelial differentiation (CD31 expression) of E-MSCs” value (ectopic E-MSCs [1]) was “no effect”.
In the case of C=CCN1C[C@H](C(=O)N(CCCN(C)C)C(=O)NCC)C[C@@H]2c3cccc4[nH]cc(c34)C[C@H]21 [cabergoline], the “E-MSC's angiogenic potential” value (ectopic E-MSCs [2]) is given as “decrease”.
In the case of COc1cc2nccc(Oc3ccc(NC(=O)C4(C(=O)Nc5ccc(F)cc5)CC4)cc3)c2cc1OC [cabozantinib], the “endothelial differentiation (CD31 expression) of E-MSCs” value (ectopic E-MSCs [1]) was “no effect”.
With O=C(CCCN1CCC2(CC1)C(=O)NCN2c1ccccc1)c1ccc(F)cc1 [spiperone] the “reversal of quinagolide anti-invasive effect” value (ectopic E-MSCs [3]) was “completely reverted” and the “block of quinagolide effect on CD31 expressing E-MSCs” value (ectopic E-MSCs [1]; 5 μM spiperone one hour before 100 nM quinagolide, co-culture) was “blocked”.
